Measured values taken from patent US6746623B2, “Alkyl glycidyl ether-capped diamine foam controlling agent” (Air Products and Chemicals, Inc., priority 2002, dated 2004).
Marks after values point to notes of the source that are not given here.

Key:
[1] = Dynamic surface tension of aqueous solutions, maximum bubble pressure method; format: physicochemical; settings: for γ at 0.1 wt %, 0.1 b/s / γ at 0.1 wt %, 1 b/s / γ at 0.1 wt %, 6 b/s / γ at 0.1 wt %, 20 b/s: 0.1 wt % in distilled water
From the text: Dynamic surface tension data were obtained for the soluble portion of these samples using the maximum bubble pressure method at bubble rates from 0.1 bubbles/sec (b/s) to 20 b/s.
The relative efficiency of surface tension reduction can be obtained by comparing surface tension reduction of solutions containing the same amount of different surfactants. Such data are given for 0.1 wt % solutions of the foam control agents at 0.1, 1, 6 and 20 bubbles/second (b/s). The limiting surface tensions at 0.1, 1, 6 and 20 b/s represent the lowest surface tensions in water which can be achieved at the given surface creation rates for a given surfactant regardless of the amount of surfactant used and is used to evaluate the effectiveness of a surfactant. In most cases the limiting surface tension was taken at 1.0 wt % since the foam control agent was insoluble at this concentration. In the case where the foam control agent was soluble at 1.0 wt %, the limiting surface tension was taken at 5.0 wt % (where the samples were insoluble). These values give information about the relative ability to a surfactant to reduce surface defects under near-equilibrium conditions (0.1 b/s) through very dynamic conditions (20 b/s).

[2] = Foam test of DOSS solutions with added foam control agent (based on ASTM D 1173-53); format: physicochemical; settings: for Foam height after 1 min / Foam height after 10 min / Initial foam height: 0.1 wt % foam control agent added to 0.1 wt % DOSS in water; for Initial foam height: ambient temperature
From the text: Dioctyl sodium sulfosuccinate (DOSS) is a commonly used surfactant in waterborne compositions. DOSS is capable of forming stable foams when dissolved in water. The foam control characteristics of various foam control agents may be assessed by measuring the foam generated by a 0.1 wt % aqueous solution of DOSS and comparing this to the foam generated after the addition of foam control agent to a 0.1 wt % DOSS solution. The DOSS utilized in these measurements was an Aerosol OT 75% surfactant obtained from Cytec Industries. The foaming and foam stability of DOSS were measured using a procedure based upon ASTM D 1173-53 at ambient temperature, typically 23° C.
In these tests, an aqueous solution of DOSS or the filtrate from the DOSS/foam control agent mixture is added from an elevated foam pipette to a foam receiver containing the same solution. The foam height is measured at the completion of the addition (“Initial Foam Height”) and the time required for the foam to dissipate at the air-liquid interface (“Time to 0 Foam”) is recorded. This test provides a comparison between the foaming characteristics of various aqueous compositions. The results for the foam control agents prepared in Examples 1-28 are reported in Table 1 along with comparative data for a 0.1 wt % solution of DOSS with no added foam control agent (Example 29).

[3] = saturated solution made using 1.0 wt % in water
[4] = saturated solution made using 5.0 wt % in water

Row | Structure (SMILES) | γ at 0.1 wt %, 0.1 b/s [1] | γ at 0.1 wt %, 1 b/s [1] | γ at 0.1 wt %, 6 b/s [1] | γ at 0.1 wt %, 20 b/s [1] | γ limiting, 0.1 b/s [1, 3] | γ limiting, 1 b/s [1, 3] | γ limiting, 6 b/s [1, 3] | γ limiting, 20 b/s [1, 3] | Foam height after 1 min [2] | Foam height after 10 min [2] | Initial foam height [2] | Effect on foaming of DOSS solution (in words) ([2]; added to the 0.1 wt % aqueous DOSS solution) | γ limiting, 0.1 b/s [1, 4] | γ limiting, 1 b/s [1, 4] | γ limiting, 6 b/s [1, 4] | γ limiting, 20 b/s [1, 4]
1 | CCCCC(CC)COCC(O)CNCCN (mixture of isomers) [EDA/1 EHGE] | 28.6 dyne/cm | 37.3 dyne/cm | 54.7 dyne/cm | 63.3 dyne/cm | 27.4 dyne/cm | 28.3 dyne/cm | 30.6 dyne/cm | 32.5 dyne/cm | 0.2 cm | 0 cm | 1.5 cm |  |  |  |  | 
2 | CCCCOCC(O)CNC1CCC(CC2CCC(N)CC2)CC1 (mixture of isomers) [PACM/1 BGE] | 44.7 dyne/cm | 47.0 dyne/cm | 50.3 dyne/cm | 55.2 dyne/cm | 43.5 dyne/cm | 44.5 dyne/cm | 46.2 dyne/cm | 48.7 dyne/cm | 0 cm | 0 cm | 2.3 cm |  |  |  |  | 
3 | CCCCOCC(O)CNCCN (racemic) [EDA/1 BGE] | 46.1 dyne/cm | 49.4 dyne/cm | 53.4 dyne/cm | 59.9 dyne/cm | 36.7 dyne/cm | 37.2 dyne/cm | 38.1 dyne/cm | 39.8 dyne/cm | 2.0 cm | 1.4 cm | 3.5 cm | increase in foaming |  |  |  | 
4 | CC(C)COCC(O)CNCCN (racemic) [EDA/1 IBGE] | 47.9 dyne/cm | 51.9 dyne/cm | 53.8 dyne/cm | 59.6 dyne/cm |  |  |  |  | 1.0 cm | 0.3 cm | 1.5 cm |  | 29.7 dyne/cm | 30.1 dyne/cm | 30.5 dyne/cm | 31.7^b dyne/cm
5 | CCCCOCC(O)CNCCCCCCN (racemic) [HDA/1 BGE] | 42.3 dyne/cm | 44.8 dyne/cm | 47.9 dyne/cm | 52.6 dyne/cm | 39.3 dyne/cm | 40.1 dyne/cm | 41.1 dyne/cm | 42.9 dyne/cm | 0.4 cm | 0 cm | 1.4 cm |  |  |  |  | 
6 | CCCCOCC(O)CNCCCOCCOCCOCCCN (centres unmarked) [DAPDEG/1 BGE] | 50.3 dyne/cm | 54.1 dyne/cm | 56.7 dyne/cm | 61.0 dyne/cm | 36.4 dyne/cm | 40.3 dyne/cm | 42.9 dyne/cm | 45.7 dyne/cm | 0.8 cm | 0.2 cm | 1.7 cm |  |  |  |  | 
7 | CCCCOCC(O)CNCCCOCCOCCOCCCN(CC(O)COCCCC)CC(O)COCCCC (centres unmarked) [DAPDEG/3 BGE] | 38.0 dyne/cm | 39.4 dyne/cm | 42.1 dyne/cm | 47.6 dyne/cm | 33.5 dyne/cm | 38.7 dyne/cm | 34.3 dyne/cm | 36.1 dyne/cm | 0.9 cm | 0.1 cm | 1.9 cm |  |  |  |  | 
8 | CCCCOCC(O)CN(CCCOCCOCCOCCCN(CC(O)COCCCC)CC(O)COCCCC)CC(O)COCCCC (centres unmarked) [DAPDEG/4 BGE] | 37.4 dyne/cm | 38.9 dyne/cm | 42.0 dyne/cm | 50.7 dyne/cm | 34.2 dyne/cm | 34.5 dyne/cm | 35.5 dyne/cm | 39.1 dyne/cm | 1.2 cm | 0.2 cm | 2.3 cm |  |  |  |  | 
9 | CCCCOCC(O)CNCCN(CC(O)COCCCC)CC(O)COCCCC (centres unmarked) [EDA/3 BGE] | 37.6 dyne/cm | 39.6 dyne/cm | 43.2 dyne/cm | 51.3 dyne/cm | 34.9 dyne/cm | 35.6 dyne/cm | 36.5 dyne/cm | 38.3 dyne/cm | 1.4 cm | 1.2 cm | 2.0 cm |  |  |  |  | 
10 | CCCCC(CC)COCC(O)CNCCN(CC(O)COCC(CC)CCCC)CC(O)COCC(CC)CCCC (centres unmarked) [EDA/3 EHGE] | 45.3 dyne/cm | 58.7 dyne/cm | 70.5 dyne/cm | 70.9 dyne/cm | 33.5 dyne/cm | 36.0 dyne/cm | 47.1 dyne/cm | 48.7 dyne/cm | 1.5 cm | 1.2 cm | 2.1 cm |  |  |  |  | 
11 | CC(C)COCC(O)CNCCN(CC(O)COCC(C)C)CC(O)COCC(C)C (centres unmarked) [EDA/3 IBGE] | 38.9 dyne/cm | 42.5 dyne/cm | 44.1 dyne/cm | 50.3 dyne/cm | 33.3 dyne/cm | 34.3 dyne/cm | 35.0 dyne/cm | 35.6 dyne/cm | 0.8 cm | 0.7 cm | 0.9 cm |  |  |  |  | 
